Experiments:
[1] = tested on: Huh-7 cells; assay: Release of active metabolite in Huh-7 cells; type: in vitro ADME, human; conditions: 10 μM test compound
Experimental: Assay for the Release of Active Metabolite in Huh-7 Cells. Huh-7 cells were plated in 1 mL culture medium (DMEM, containing glucose, L-glutamine and sodium pyruvate, 10% FBS, 100 IU/mL penicillin, 100 μg/mL streptomycin, 2 mM GlutaMAX, 1% MEM non-essential amino acids) at the concentration 0.8, 0.4 and 0.2 million cells per well on 6 well plates for 24, 48 and 72 hr treatment, respectively. Plated cells were incubated overnight at 37° C. in an incubator.
The following morning test compound was diluted to 20 μM from a stock solution in DMSO in fresh culture medium pre-warmed to 37° C. and 1 mL of the solution/well was added to cells. A final medium volume per well was 2.0 mL, test compound concentration in well was 10 μM and final DMSO concentration was 0.1%.
After 24, 48 or 72 hr, the medium was carefully removed and cell monolayers were washed twice with 2 mL ice-cold PBS per well. Following the last wash, all PBS was carefully removed and 1.0 mL of extraction solution (ice-cold 70% methanol) added. The plate was tightly covered with Parafilm, plastic plate cover and Parafilm again and an intracellular content was extracted at −20° C. for 24 hr.
After 24 hr extracts were transferred into polypropylene microfuge tubes and dry on a refrigerated centrivap concentrator. Dry residues were reconstituted in 250 μL of HPLC-grade water and centrifuged at 16,000×g for 10 min. Aliquots (100 μL each) of the supernatants were transferred into a 96 well plate and internal standard (4 ng/mL final concentration) was added as the internal standard (IS) for LC-MS/MS analysis.

[2] = Plasma and liver pharmacokinetics following a single oral dose in CD-1 mice; type: in vivo; conditions: CD-1 male mice; for Ms Liver 2′-MeGTP AUC (pmol · hr/g at 1 μmol/kg): single oral dose 25 mg/kg in PEG 200, liver 2′-MeGTP; for Ms Plasma 2′-MeG AUC (pmol · hr/mL at 1 μmol/kg) / Ms Plasma 2′-MeG Cmax (pmol/mL at 1 μmol/kg): single oral dose 25 mg/kg in PEG 200, plasma 2′-MeG
Experimental: Plasma samples were analyzed for 2′-methylguanosine (2′-MeG) by LC-MS/MS. The internal standard (IS) was 2′-MeG-D3. For protein precipitation and extraction, each plasma sample (50 μL) was treated with 500 μL of 0.2% formic acid in acetonitrile and 20 μL of the internal standard working solution. After vortexing and centrifugation, 500 μL of the sample extracts were transferred to a new plate, dried under N2 at ˜28° C. and reconstituted with 75 μL of 0.2% FA in water. The extracts were chromatographed on an Aquasil C18 column using a gradient system of 0.2% formic acid in water and acetonitrile. The analytes were detected and quantified by tandem mass spectrometry in positive ion mode on an MDS Sciex API5000 equipped with a Turbo Ionspray® interface. The calibration range was 0.500 (LLOQ) to 200 ng/mL in mouse plasma. The corresponding range for molar units is 1.68 to 673 pmol/mL.
Liver samples were analyzed for the active species 2′-methylguanosine triphosphate (2′-MeGTP) by LC-MS/MS. […] Internal standard solution was added to the homogenate followed by neutralization with 20% ammonium hydroxide solution and addition of 500 μL 1% formic acid. The tissue samples were extracted by weak anion exchange solid phase extraction (SPE). Post extraction, the eluates were evaporated under nitrogen, followed by reconstitution before injection onto the LC-MS/MS system. […] The calibration range was 10 to 10000 pmol/mL in mouse liver homogenate (50 to 50000 pmol/g of mouse liver).

[3] = Stability in human intestinal S9 (HIS9); type: in vitro ADME; conditions: 10 μM, 1.0 mg/mL protein, NADPH, 60 min; percent unchanged
Experimental: (§1) Stability in Liver and Intestinal Subcellular Fractions: Stability of test compounds were determined in subcellular fractions (microsomes and S9) of human liver and intestine in duplicate for each matrix. Pooled liver and intestinal microsomal, intestinal and liver S9 proteins (1.0 mg/mL), suspended in incubation buffer (100 mM potassium phosphate, pH 7.4, 5 mM MgCl2, and 0.1 mM EDTA), were preincubated for 5 min at 37° C. with 10 μM of a test compound from a 10 mM stock solution in DMSO (final DMSO concentration was 0.1%); the reaction was initiated by the addition of NADPH (3 mM final concentration). At specific times (0 and 60 min), 0.1 mL samples were taken and the reaction terminated by the addition of 4 volumes of stop solution (acetonitrile with 500 ng/mL carbutamide as an internal standard). The samples were vortexed for 30 sec and then centrifuged at 16,000 g for 10 min. 100 μL of supernatants were transferred to 96 deep-well plates preloaded with 100 μL distilled water and analyzed after mixing by LC-MS/MS. The MS peak area ratio of the test compound versus the internal standard was calculated and percent unchanged test compound over 60 minutes was calculated using this ratio.

[4] = Stability in simulated intestinal fluid; type: in vitro ADME; conditions: 100 μM, 2 hours at 37° C.; percent of peak area at time zero
Experimental: Stability in Simulated Gastric and Intestinal Fluids: Simulated gastric and intestinal fluids containing pepsin and pancreatin respectively were prepared according to the U.S. Pharmacopoeia USP291 procedure (www.pharmacopeia.cn/v29240/usp29nf24s0_ris1s126.html). Test compound (final concentration 100 μM) was incubated in duplicate in the appropriate fluid for 2 hours at 37° C. The samples were quenched with 200 μl cold acetonitrile, vortexed for 30 seconds and then centrifuged at 16,100 g for 10 min. The supernatants were analyzed by HPLC on a C-18 column with UV detection at 252 nm. The time 0 samples were prepared by adding SGF or SIF fluid to the quenching solvent followed by the test compound. Stability of the compound was determined by peak area the test compound after incubation and calculated as percent of the peak area observed at time zero.

[5] = Stability in human intestinal microsomes; type: in vitro ADME; conditions: 10 μM, 1.0 mg/mL protein, NADPH, 60 min; percent unchanged
Experimental: as §1

[6] = Cytotoxicity evaluation (CellTiter-Blue Cell Viability Assay); type: cell-based, human; conditions: human, Zluc cells, read-out: HCV Replicon CC50
[7] = Stability in mouse blood; type: in vitro ADME; conditions: on ice, percent unchanged test compound
Experimental: Stability in Fresh Whole Blood: Stability of test compounds were determined in fresh human whole blood with K2EDTA as the anticoagulant (stored refrigerated at 2-8° C. and used within 7 days of receipt). The experiment was conducted with three replicates for each time point. Whole blood, pre-incubated at 37° C. for 10-15 minutes, was fortified with a solution of test compound for a final concentration of 0.5 μM and mixed for 30 sec. At intervals (0, 0.5, 1 and 2 hr), three 50-μL aliquots were combined with 200 μL (each) of an ice-cold solution of the internal standard (carbutamide 500 ng/mL in acetonitrile). The samples were vortexed for 30 sec and then centrifuged at 16,100 g for 5 min. The supernatant was analyzed by LC-MS/MS. The MS peak area ratio of the test compound versus the internal standard was calculated and percent unchanged test compound was calculated for each time point using this ratio.
The stability in mouse blood was determined on ice at 0, 0.5 and 1 hr as above.

[8] = tested on: Zluc cells; assay: Cytotoxicity evaluation (CellTiter-Blue Cell Viability Assay); type: cell-based, human; conditions: read-out: HCV Replicon CC50

Row | Structure (SMILES) | Huh-7 TP Cmax (pmol/mill cells) [1] [pmol/mill cells] | Ms Liver 2′-MeGTP AUC (pmol · hr/g at 1 μmol/kg) [2] [pmol · hr/g at 1 μmol/kg] | Ms Plasma 2′-MeG AUC (pmol · hr/mL at 1 μmol/kg) [2] [pmol · hr/mL at 1 μmol/kg] | Ms Plasma 2′-MeG Cmax (pmol/mL at 1 μmol/kg) [2] [pmol/mL at 1 μmol/kg] | Stability HIS9 (1 hr) [3] [%] | Stability SIF [4] [%] | Stability HIM (1 hr) [5] [%] | CC50 [6] [µM] | Stability WB_Mouse (ice; 1 hr) [7] [%] | CC50 [8] [µM]
1 | CCOc1nc(N)nc2c1ncn2[C@@H]1O[C@@H]2COP(=O)(N[C@@H](C)C(=O)OC(C)C)O[C@H]2[C@@]1(C)F (single isomer, unassigned) [Compound 1 Diastereomer 1] | 283 | 2400 | 110 | 14 | 84 | 83 | 70 | > 50 | 92 | 
2 | CCOc1nc(N)nc2c1ncn2[C@@H]1O[C@@H]2COP(=O)(N[C@@H](C)C(=O)OC(C)C)O[C@H]2[C@@]1(C)F (single isomer, unassigned) [Compound 1 Diastereomer 2] |  | 810 | 92 | 9.8 | 96 | 2 | 98 |  | 36 | > 50

— US9109001B2, “3′,5′-cyclic phosphoramidate prodrugs for HCV infection” (priority 2012, dated 2015)
